Data reported in US20040220164A1, “Triaza compound immunoregulatory agents” (priority 2001, published 2004).
Where two headings read alike, the source gives them in different places.

Tests used:
[1] = Cytotoxic concentration (Example 2); assay type: cell-based; conditions: human, PBMC
[2] = Cytotoxic concentration (Example 2); assay type: cell-based; conditions: human, SupT1 cells; read-out: cytotoxic concentration (CC50)
CXCR4 = assay: Cell surface expression of HIV coreceptor; assay type: cell-based, human; conditions: incubation of the cells with CADA for 4 days
Experimental: (§1) Expression of various other surface antigens was also examined in MT-4 cells, SupT1 cells and PBMCs after incubation with CADA (16 μM) or CADA-free medium at 37° C. for 4 days. After washing with phosphate-buffered saline (PBS) containing 2% FCS(fetal calf serum), the cells were incubated with mAb (as indicated in Table 1) for 20 min at 4° C. Then the cells were washed, fixed with 1% formaldehyde and analyzed by flow cytometry. All mAbs were purchased from Becton-Dickinson (Erembodegem, Belgium).

CCR5 = assay: Cell surface expression of HIV coreceptor; assay type: cell-based, human; conditions: incubation of the cells with CADA for 4 days
Experimental: as §1

CD45 = assay: Cell surface antigen expression by flow cytometry (Table 2); assay type: cell-based, human; conditions: CADA 16 μM, 4 days, percentage of positive cells, unit not given
Experimental: as §1

CD8 = assay: as above; assay type: cell-based, human; conditions: CADA 16 μM, 4 days, percentage of positive cells, unit not given
Experimental: as §1

CD57 = assay: as above; assay type: cell-based, human; conditions: CADA 16 μM, 4 days, percentage of positive cells, unit not given
Experimental: as §1

HLA-DR = assay: as above; assay type: cell-based, human; conditions: CADA 16 μM, 4 days, percentage of positive cells, unit not given
Experimental: as §1

CD5 = assay: as above; assay type: cell-based, human; conditions: CADA 16 μM, 4 days, percentage of positive cells, unit not given
Experimental: as §1

CD2 = assay: as above; assay type: cell-based, human; conditions: CADA 16 μM, 4 days, percentage of positive cells, unit not given
Experimental: as §1

CD26 = assay: as above; assay type: cell-based, human; conditions: CADA 16 μM, 4 days, percentage of positive cells, unit not given
Experimental: as §1

CD45RA = assay: as above; assay type: cell-based, human; conditions: CADA 16 μM, 4 days, percentage of positive cells, unit not given
Experimental: as §1

CD38 = assay: as above; assay type: cell-based, human; conditions: CADA 16 μM, 4 days, percentage of positive cells, unit not given
Experimental: as §1

CD11b = assay: as above; assay type: cell-based, human; conditions: CADA 16 μM, 4 days, percentage of positive cells, unit not given
Experimental: as §1

CD25 = assay: as above; assay type: cell-based, human; conditions: CADA 16 μM, 4 days, percentage of positive cells, unit not given
Experimental: as §1

CD28 = assay: as above; assay type: cell-based, human; conditions: CADA 16 μM, 4 days, percentage of positive cells, unit not given
Experimental: as §1

CD3 = assay: as above; assay type: cell-based, human; conditions: CADA 16 μM, 4 days, percentage of positive cells, unit not given
Experimental: as §1

CD71 = assay: as above; assay type: cell-based, human; conditions: CADA 16 μM, 4 days, percentage of positive cells, unit not given
Experimental: as §1

TCRα/β = assay: as above; assay type: cell-based, human; conditions: CADA 16 μM, 4 days, percentage of positive cells, unit not given
Experimental: as §1

CD4 = CD4 (Homo sapiens, UniProt P01730); assay: Cell surface CD4 expression by flow cytometry (anti-CD4 mAb Leu3a-PE); assay type: cell-based; set-up: To study the effect of the CADA derivatives on surface CD4 antigen expression, MT-4 and SupT1 cells were incubated; endogenous in cells; host or cells: MT-4, SupT1, PBMC; conditions: for CD4 cell surface antigen expression: percentage of positive cells, unit not given; for surface CD4 antigen expression: CADA 3.2 μM; for percentage of cell surface CD4 expression: ATA 24 μM, PMA 8 nM (FIG. 4)
Outline: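 MT-4, SupT1 cells and PBMCs were exposed at 37° C to CADA hydrochloride (3.2 or 16 μM) for 20 min to 4 days, with ATA (24 μM) and PMA (8 nM) as comparators in SupT1. Cells were stained with PE-anti-CD4 (Leu3a) for 20 min at 4° C and fixed in 1% formaldehyde. Read-out was flow cytometry as % positive cells and MFI.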

In the case of C=C1CN(S(=O)(=O)c2ccc(C)cc2)CCCN(Cc2ccccc2)CCCN(S(=O)(=O)c2ccc(C)cc2)C1 [CADA], the CC50 [1] is reported as 73 µM, the CC50 [2] is reported as 185 µM and the “cell surface expression of CXCR4” value (CXCR4) is reported as “remained unchanged”. For the same compound, the “cell surface expression of CCR5” value (CCR5) was “remained unchanged”, the “CD45 cell surface antigen expression” value (CD45; MT-4 T-cells) was 3.57 and the “CD45 cell surface antigen expression” value (CD45; PBMCs) was 98.3. The “CD45 cell surface antigen expression” value (CD45; SupT1 T-cells) was 99.6, the “CD8 cell surface antigen expression” value (CD8; MT-4 T-cells) was 3.5 and the “CD8 cell surface antigen expression” value (CD8; PBMCs) was 25.1. The “CD8 cell surface antigen expression” value (CD8; SupT1 T-cells) was 92.3, the “CD57 cell surface antigen expression” value (CD57; MT-4 T-cells) was 1.5 and the “CD57 cell surface antigen expression” value (CD57; PBMCs) was 2.3. For the same compound, the “CD57 cell surface antigen expression” value (CD57; SupT1 T-cells) was 82.4, the “HLA-DR cell surface antigen expression” value (HLA-DR; MT-4 T-cells) was 98.7 and the “HLA-DR cell surface antigen expression” value (HLA-DR; PBMCs) was 27. The “HLA-DR cell surface antigen expression” value (HLA-DR; SupT1 T-cells) was 1.7, the “CD5 cell surface antigen expression” value (CD5; MT-4 T-cells) was 99.1 and the “CD5 cell surface antigen expression” value (CD5; PBMCs) was 80.6. For the same compound, the “CD5 cell surface antigen expression” value (CD5; SupT1 T-cells) was 93.9, the “CD2 cell surface antigen expression” value (CD2; MT-4 T-cells) was 2.6 and the “CD2 cell surface antigen expression” value (CD2; PBMCs) was 90.7. For the same compound, the “CD2 cell surface antigen expression” value (CD2; SupT1 T-cells) was 0.5, the “CD26 cell surface antigen expression” value (CD26; MT-4 T-cells) was 3.2 and the “CD26 cell surface antigen expression” value (CD26; PBMCs) was 3.2. The “CD26 cell surface antigen expression” value (CD26; SupT1 T-cells) was 0.3, the “CD45RA cell surface antigen expression” value (CD45RA; MT-4 T-cells) was 2.0 and the “CD45RA cell surface antigen expression” value (CD45RA; PBMCs) was 64.3. The “CD45RA cell surface antigen expression” value (CD45RA; SupT1 T-cells) was 0.5, the “CD38 cell surface antigen expression” value (CD38; MT-4 T-cells) was 84.5 and the “CD38 cell surface antigen expression” value (CD38; PBMCs) was 73.2. For the same compound, the “CD38 cell surface antigen expression” value (CD38; SupT1 T-cells) was 99.1, the “CD11b cell surface antigen expression” value (CD11b; MT-4 T-cells) was 9.7 and the “CD11b cell surface antigen expression” value (CD11b; PBMCs) was 12.3. The “CD11b cell surface antigen expression” value (CD11b; SupT1 T-cells) was 0.6, the “CD25 cell surface antigen expression” value (CD25; MT-4 T-cells) was 93.3 and the “CD25 cell surface antigen expression” value (CD25; PBMCs) was 35.5. For the same compound, the “CD25 cell surface antigen expression” value (CD25; SupT1 T-cells) was 1, the “CD28 cell surface antigen expression” value (CD28; MT-4 T-cells) was 6.6 and the “CD28 cell surface antigen expression” value (CD28; PBMCs) was 89.6. For the same compound, the “CD28 cell surface antigen expression” value (CD28; SupT1 T-cells) was 90.8, the “CD3 cell surface antigen expression” value (CD3; MT-4 T-cells) was 5.9 and the “CD3 cell surface antigen expression” value (CD3; PBMCs) was 89.4. For the same compound, the “CD3 cell surface antigen expression” value (CD3; SupT1 T-cells) was 2.7, the “CD71 cell surface antigen expression” value (CD71; MT-4 T-cells) was 98.8 and the “CD71 cell surface antigen expression” value (CD71; PBMCs) was 27.6. The “CD71 cell surface antigen expression” value (CD71; SupT1 T-cells) was 33.9, the “TCRα/β cell surface antigen expression” value (TCRα/β; MT-4 T-cells) was 1.1 and the “TCRα/β cell surface antigen expression” value (TCRα/β; PBMCs) was 82.3. The “TCRα/β cell surface antigen expression” value (TCRα/β; SupT1 T-cells) was 1.6, the “CD4 cell surface antigen expression” value (CD4; MT-4 T-cells, CADA 16 μM, 4 days) was 6.3 and the “surface CD4 antigen expression” value (CD4; MT-4 cells, 1 day, control 95.6%) was 4.9%. For the same compound, the “surface CD4 antigen expression” value (CD4; MT-4 cells, 4 days, control 95.6%) was 6.3%, the “percentage of CD4 expression” value (CD4; PBMCs, CADA 16 μM, 4 days) was 0.2% and the “CD4 cell surface antigen expression” value (CD4; PBMCs, CADA 16 μM, 4 days) was 0.2. For the same compound, the “CD4 cell surface antigen expression” value (CD4; SupT1 T-cells, CADA 16 μM, 4 days) was 1.2, the “percentage of cell surface CD4 expression” value (CD4; SupT1 cells, 20 minutes, CADA 16 μM) was “still as high as in the untreated cells” and the “percentage of cell surface CD4 expression” value (CD4; SupT1 cells, 4 hours, CADA 16 μM) was “still as high as in the untreated cells”. The “percentage of cell surface CD4 expression” value (CD4; SupT1 cells, 1 day, CADA 16 μM) was “decrease became clearly visible”, the “percentage of cell surface CD4 expression” value (CD4; SupT1 cells, 4 days, CADA 16 μM) was 1.2% and the “surface CD4 antigen expression” value (CD4; SupT1 cells, 1 day, control 96.4%) was 46.4%. The “surface CD4 antigen expression” value (CD4; SupT1 cells, 4 days, control 96.4%) was 1.2% and the “effect of human serum on CD4 down-modulation induced by CADA” value (CD4; presence of human serum) was “did not affect”.
With C=C1CN(S(=O)(=O)c2ccc(C)cc2)CCCN(CC2CCCCC2)CCCN(S(=O)(=O)c2ccc(C)cc2)C1 [QJ028] the “down-regulation of CD4 expression (in words)” value (CD4) was “down-regulate CD4 expression”.
In the case of C=C1CN(S(=O)(=O)c2ccc(C)cc2)CCCN(C(=O)OCCC)CCCN(S(=O)(=O)c2ccc(C)cc2)C1 [QJ033], the “down-regulation of CD4 expression (in words)” value (CD4) is reported as “down-regulate CD4 expression”.
